Measurements as given in patent EP3409671B1, “ISOTHIAZOLE DERIVATIVES AS GPR120 AGONISTS FOR THE TREATMENT OF TYPE II DIABETES” (Janssen Pharmaceutica NV, priority 2014, dated 2015).
pEC50: −log10 of the molar value.

How the values were obtained:
C57b1/6J Mice = assay: GPR120 C57bl6 Mouse IPGTT; assay type: in vivo; parameters: C57 IPGTT 10mg/kg: unit not given here; conditions: for C57 IPGTT 3mg/kg: 3mg/kg dosed 30 minutes prior to glucose IP 1.5g/kg; for C57 IPGTT 10mg/kg: 10mg/kg dosed 30 minutes prior to glucose IP 1.5g/kg
Description: Male, C57b1/6J Mice were ordered in at 8 weeks of age from Jackson Labs. Individual mice weighed anywhere in the range of 25-30 grams on study day. The mice were fasted, with removal of food occurring at 7am on the morning of the study. Animals were moved into the room at 10:00am, to give them time to acclimate. Glucose (insulin syringes) was drawn up either the night before or the morning of the study. Glucose was dosed (IP) at 1.5g/kg at 7.5ml/kg (20% glucose straight TEKNOVA, 250ml sterile bottle w/ catalogue number G0525). Test compounds were kept spinning and were only drawn into the syringes prior to study commencement. Animals were bled via tail snip to determine basal glucose levels prior to dosing of treatments. An Ascensia BREEZE Blood Glucose Monitoring System by Bayer (using unique 10-test disks) was used for determining glucose levels. The bleeds started at approximately 12:45pm and dosing started, at 1-minute intervals, immediately after. All groups were dosed 30 minutes prior to glucose administration at a dose volume of 10ml/kg (the dose volume was calculated separately for each individual animal). Thirty minutes after the first dose animals were bled again for a second baseline, or T=0, and immediately dosed with glucose via an i.p. injection. The exact dose volume for glucose was also calculated separately for each individual animal. Glucose measurements were taken at -30min prior to compound dose, at t=0 (immediately prior to glucose dose), and at 15, 30, 45, 60, 90min post glucose dose.
Glucose values were entered into an Excel sheet and graphed in GraphPad Prism. The following were calculated from Prism: Change from -30 to 0 BSLN Glucose, Raw Glucose AUC -30 to 90min, Delta Glucose AUC -30 to 90min, Raw Glucose AUC 0 to 90min, Delta Glucose AUC 0 to 90min.
Representative compounds of the present disclosure were tested according to the procedures as described in Biological Example 4, above with results as listed in Table 3, below. […] Where a compound was tested more than once, each result is listed individually. Table 3: GPR120 C57bl6 Mouse IPGTT OGTT Results

Human GPR120 short form [1] = molecular target: T1, Human GPR120 short form (Homo sapiens, UniProt Q5NUL3); assay: Human GPR120 Calcium Flux Assay, Procedure Calcium B; assay type: cell-based; conditions: HEK-293 cells expressing Human GPR120 short form, FLIPR, 4200 cells/well; read-out: GPR120 Ca^2+ Assay B EC50
T1 construct: expressed in transfected cells
T1 sequence (Q5NUL3 1-361): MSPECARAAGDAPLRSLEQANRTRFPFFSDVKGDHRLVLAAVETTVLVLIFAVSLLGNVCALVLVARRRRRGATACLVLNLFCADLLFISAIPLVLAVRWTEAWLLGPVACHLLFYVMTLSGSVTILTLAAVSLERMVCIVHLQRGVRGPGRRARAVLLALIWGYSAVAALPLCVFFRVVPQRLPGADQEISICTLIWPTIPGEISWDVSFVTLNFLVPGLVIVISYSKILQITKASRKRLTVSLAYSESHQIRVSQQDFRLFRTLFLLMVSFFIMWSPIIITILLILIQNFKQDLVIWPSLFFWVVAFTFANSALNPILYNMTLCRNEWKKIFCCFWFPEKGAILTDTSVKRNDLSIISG
Source text: (§1) This in vitro assay serves to assess test compound agonist activity against the short splice variant (SVS with Accession number NM_001195755.1 confirmed by sequencing data) of the GPR120 receptor. The Human Short splice variant #2 (NM_001195755.1) is missing an in-frame coding exon compared to variant 1 (the Human Long splice variant NM_181745.3), resulting in a shorter isoform (GPR120-S) lacking a 16 aa protein segment compared to isoform GPR120-L. The assay platform utilizes HEK-293 cells stably transfected to express the Human GPR120 short form. These cells are first loaded with the Ca^+2 sensitive dye, Fluo-4 NW. Upon stimulation, intracellular released Ca^+2 can bind to the dye and alter its fluorescence intensity. This increase in fluorescence signal, and thus the flux in intracellular [Ca^2+], is detected and quantitated by fluorescence imaging using a FLIPR reader. The effect of the agonist is measured as a function of concentration and used to calculate an EC50 based upon a response curve.
In this procedure 4200 cells/well were employed.
(§2) A Human GPR120 clone (Genbank accession number NM _001195755.1) was placed into the pcDNA3.1 mammalian expression vector carrying the neomycin resistance gene. A stable mammalian cell was generated by placing the above clone into a HEK293 background. Clonal cells responding to long chain fatty acids had expression levels of GPR120 confirmed by RT-qPCR. Human HEK-GPR120 cells were cultured in Dulbecco's Modified Eagle's Medium (DMEM)/F12 medium supplemented with 10% fetal bovine serum (FBS), 1% L-Glutamine and 1% penicillin/streptomycin and 0.5 mg/ml G-418. Cells were split 2 times a week to keep the cells in the log-phase growth.
(§3) In preparation for the assay, HEK cells stably transfected with Human GPR120 (2.5K cells per well in 25uL growth medium) were seeded into 384-well plates and then incubated overnight (37°C, 5% CO2). The next day, the media was changed to 20 µL assay buffer and the cell starved for 1h at 37°C. […]
(§4) The assay was performed on a FLIPR plate reader using the following parameters. Baseline was read for 10 seconds at 1 sec intervals. The program was set to transfer 10µL of ligand from compound plate to cell plate after baseline reading. […] After compound addition, each well was read for 300 sec, with measurements collected at 1 sec intervals.
(§5) The kinetic data from the FLIPR was based upon a 5 minute window for data collection. The fluorescence of each sample well was used for individual calculations of a normalized RFU value, which was defined as maximum response minus the minimum response. The normalized fluorescence reading (RFU) was calculated as follows: RFU = Fmax−Fmin [formula] […]

Human GPR120 short form [2] = molecular target: T1, Human GPR120 short form; assay: Human GPR120 Calcium Flux Assay, Procedure Calcium A; assay type: cell-based; conditions: HEK-293 cells expressing Human GPR120 short form, FLIPR, 2500 cells / well; read-out: GPR120 Ca^2+ Assay A EC50
Source text: as §1
In this procedure 2500 cells / well were employed.
as §2, §3, §4, §5

| Structure (SMILES) | C57 IPGTT 3mg/kg (C57b1/6J Mice) | C57 IPGTT 10mg/kg (C57b1/6J Mice) | other results |
| --- | --- | --- | --- |
| CCc1ccc(-c2nsc(C(F)(F)F)c2COc2c(F)cc(CCC(=O)O)cc2F)cc1 [Cpd 70, 3-(4-[[3-(4-ethylphenyl)-5-(trifluoromethyl)-1,2-thiazol-4-yl]methoxy]-3,5-difluorophenyl)propanoic acid] | – | – | C57 IPGTT 30mg/kg (C57b1/6J Mice; 30mg/kg dosed 30 minutes prior to glucose IP 1.5g/kg): -88 |
| O=C(O)CCc1cc(F)c(OCc2c(C3CCCC3)nsc2C(F)(F)F)c(F)c1 [Cpd 71, 3-(4-[[3-cyclopentyl-5-(trifluoromethyl)-1,2-thiazol-4-yl]methoxy]-3,5-difluorophenyl)propanoic acid] | -14 | – | – |
| COC(=O)CCc1cc(F)c(OCc2c(-c3ccc(Cl)cc3F)nsc2C(F)(F)F)c(F)c1 [Cpd 263, Methyl 3-(4-{[3-(4-chloro-2-fluorophenyl)-5-(trifluoromethyl)isothiazol-4-yl]methoxy}-3,5-difluorophenyl)propanoate] | – | – | pEC50 (Human GPR120 short form [1]): < 5.30 |
| O=C(O)CCc1ccc(OCc2c(-c3ccc(Cl)cc3)nsc2C(F)(F)F)c(F)c1F [Cpd 106, 3-(4-[[3-(4-chlorophenyl)-5-(trifluoromethyl)-1,2-thiazol-4-yl]methoxy]-2,3-difluorophenyl)propanoic acid] | – | -34 | – |
| OCCCc1cc(F)c(OCc2c(-c3ccc(Cl)cc3)nsc2C(F)(F)F)c(F)c1 [Cpd 100, 3-(4-[[3-(4-chlorophenyl)-5-(trifluoromethyl)-1,2-thiazol-4-yl]methoxy]-3,5-difluorophenyl)propan-1-ol] | – | -42 | – |
| Cc1ccccc1-c1snc(Cl)c1COc1cc(C(F)(F)F)c(CCC(=O)O)cc1F [Cpd 246, 3-(4-((3-chloro-5-(o-tolyl)isothiazol4-yl)methoxy)-5-fluoro-2-(trifluoromethyl)phenyl)propanoic acid] | – | – | pEC50 (Human GPR120 short form [2]): 5.63 |
| O=C(O)CCc1cc(F)c(OCc2c(-c3ccc(Cl)cc3)nsc2C(F)(F)F)c(F)c1 [Cpd 79, 3-(4-[[3-(4-chlorophenyl)-5-(trifluoromethyl)-1,2-thiazol-4-yl]methoxy]-3,5-difluorophenyl)propanoic acid] | – | -60 | – |
| CCc1ccc(-c2snc(Cl)c2COc2ccc(CCC(=O)O)c(C)c2C)cc1 [Cpd 85, 3-(4-[[3-chloro-5-(4-ethylphenyl)-1,2-thiazol-4-yl]methoxy]-2,3-dimethylphenyl)propanoic acid] | -29 | -48 | – |
| O=C(O)CCc1cc(F)c(OCc2c(-c3ccc(F)c(F)c3)nsc2C(F)(F)F)c(F)c1 [Cpd 129, 3-(4-((3-(3,4-difluorophenyl)-5-(trifluoromethyl)isothiazol-4-yl)methoxy)-3,5-difluorophenyl)propanoic acid] | – | – | pEC50 (Human GPR120 short form [2]): 6.90 |
| Cc1c(CCC(=O)O)ccc(OCc2c(-c3ccc(Cl)cc3)nsc2C(F)(F)F)c1C [Cpd 142, 3-(4-((3-(4-chlorophenyl)-5-(trifluoromethyl)isothiazol-4-yl)methoxy)-2,3-dimethylphenyl)propanoic acid] | -34 | -61 | – |
